Assay results taken from patent publication US7531195B2, “Schisandrin B preparation” (priority 2005, dated 2009).

Tests used:
H9c2 cells [1] = experiment: Xanthine/xanthine oxidase-induced cytotoxicity (LDH leakage) in H9c2 cells; assay type: cell-based, rat; details: X/XO challenge, 6.25 μM
Protocol: (§1) H9c2 cells, a permanent cell line derived from cardiac myoblasts of rat embryo, have early been characterized as a suitable model of myocardial cells [Hescheler et al. 1991]. H9c2 cells were cultured as monolayers in Dulbecco's modified Eagle's medium (GIBCO BRL) supplemented with 10% (v/v) fetal bovine serum. The medium contained glucose (4.5 g/L) and glutamine (4.5 mM), supplemented with NaHCO3 (17 mM), penicillin (100 IU/ml), and streptomycin (100 μg/ml). Cells were grown under an atmosphere of 5% CO2 in air at 37° C. The medium was replaced by fresh medium every 2 or 3 days. A stock of cells was grown in a 75 cm culture flask and split before confluence at a subcultivation ratio of 1:10. Cells used for experiments were seeded at a density of 3.75×10^4 cells/well on a 12-well culture plate, and the cells were grown for 24 h to about 80% confluence prior to drug treatment.
(§2) Cultured H9c2 cells were treated with (−) Schisandrin B, (+) Schisandrin B or (±) Schisandrin B (dissolved in DMSO) at 6.25 μM (0.2% DMSO final concentration) for increasing periods of time. Control cells were given the vehicle (i.e. DMSO) only. Immediately following the drug or vehicle pretreatment, the cells were challenged with a mixture of xanthine (X) (0.1 mM) and xanthine oxidase (XO) (0.4 U/ml) for 4 h. The control cells were treated with the medium only. After the X/XO challenge, the medium was taken for the measurement of LDH activity, a biochemical index of cellular injury.

H9c2 cells [2] = experiment: Cellular GSH level in H9c2 cells with or without menadione challenge; assay type: cell-based, rat
Protocol: as §1
(§3) Cultured H9c2 cells were treated with (−) Schisandrin B, (+) Schisandrin B or (±) Schisandrin B (dissolved in DMSO) at 6.25 μM (0.2% DMSO final concentration) for 16 h. Control cells were given the vehicle (i.e. DMSO) only. Immediately following the drug or vehicle pretreatment, the cells were challenged with menadione (dissolved in ethanol) at 12.5 μM (0.2% ethanol final concentration) for 4 h. The control cells were treated with the medium containing 0.2% ethanol only. After the menadione challenge, the medium was taken for the measurement of LDH activity, an biochemical index of cell injury.
(§4) The cells were washed twice with 0.5 ml cold phosphate-buffered saline (PBS), An aliquot (200 μl) of 3% sulfonsalicyclic acid was then added, and the mixture was incubate at 4° C. for 10 min. After centrifuging at 300 g for 15 min at 4° C., the supernatant was used for GSH measurement by an enzymatic method of Griffith (1980).

H9c2 cells [3] = experiment: Menadione-induced toxicity (LDH) in H9c2 cells; assay type: cell-based, rat
Protocol: as §1, §3

Hsp70 = Hsp70 expression in H9c2 cells (Western blot); assay type: cell-based, rat; details: 6.25 μM
Protocol: as §1
(§5) Cultured H9c2 cells were treated with (−) Schisandrin B, (+) Schisandrin B or (±) Schisandrin B (dissolved in DMSO) at 6.25 μM (0.2% DMSO final concentration) for increasing periods of time. Control cells were given the vehicle (i.e. DMSO) only.
(§6) Immediately following the drug treatment, the cells were washed twice with 0.5 ml cold PBS and treated with 100 μl lysis buffer containing 20 mM Tris HCl, 3 mM EGTA, 1% Triton X-100, 10% glycerol and 2 mM dithiothreitol, pH 7.5, with freshly added protease inhibitors (1 mM phenylmethylsulfonyl fluoride, 0.1 mM benzamide, 5 μg/ml leupeptin, 5 μg aproptinin and 5 μg/ml pepstain A). The mixture was incubated at 4° C. for 15 min with constant shaking. Then the cells were scraped off from the plate, and the extract was transferred to a microcentrifuge tube for centrifugation at 2,400 g for 3 min at 4° C. The resultant supernatant was used for Hsp analysis. Hsp25 and Hsp70 levels was estimated by Western blot analysis using specific antibodies (anti-Hsp25, catalog #SPA-801; anti-Hsp70, catalog #SPA-812) from StressGen (Vancouver, BC, Canada) following SDS-PAGE analysis cell lysates, using a separating gel of 10% acrylamide as described in Ip et. al. [2001]. Hsp25/27 and Hsp70 (human recombinant proteins from StressGen) and actin (bovine muscle from Sigma) were used as markers for reference. […] All immuno-blots were analyzed by densitometry, and the amounts (arbitrary units) of Hsp were normalized with reference to actin levels (arbitrary units) in the sample.

H9c2 cells [4] = experiment: Cellular GSH level in H9c2 cells, time course, with or without xanthine/xanthine oxidase (X/XO) challenge; assay type: cell-based, rat; details: 6.25 μM
Protocol: as §1, §2, §4

Hsp25 = Hsp25 expression in H9c2 cells (Western blot); assay type: cell-based, rat; details: 6.25 μM
Protocol: as §1, §5, §6

[5] = tested on: mitochondria of brain, heart, liver and skeletal muscle; experiment: Mitochondrial ATP generation capacity in various tissues of young female rats; assay type: in vivo, rat; details: 15 days; for ATP generation: (−) Sch B, α-LA, α-Toc at daily 10, 5 and 70 mg/kg respectively; for effect on mitochondrial ATP generation capacity in various tissues: α-LA 5 mg/kg, α-Toc 70 mg/kg daily
[6] = tested on: mitochondria of brain, heart, liver and skeletal muscle; experiment: Mitochondrial antioxidant status in various tissues of young female rats; assay type: in vivo, rat; details: (−) Sch B, α-LA, α-Toc at daily 10, 5 and 70 mg/kg respectively, 15 days
Protocol: The dosages were determined with reference to the equivalent amount of crude herb prescribed for human or the daily recommended intake in health supplements. The control animals received olive oil only. Twenty-four hours after the last dose, the pentobarbital-anesthetized animals were sacrificed by cardiac excision, and brain. heart, liver and skeletal muscle tissues were obtained. Tissue samples (brain, heart, liver, and skeletal muscle) were rinsed with ice-cold isotonic buffer (50 mM Tris, 0.32 M sucrose, 1 mM Na2EDTA, 0.2 mg/ml soybean trypsin inhibitor, 0.2 mg/ml bacitracine, 0.16 mg/ml benzamidine). Tissue homogenates were prepared by homogenizing 0.8 g of myocardial tissue in 8 ml ice-cold isotonic buffer and the homogenates were used for the preparation of mitochondrial fractions by differential centrifugation, as described in Chiu and Ko (2004). The mitochondrial pellets were resuspended in 1.5 ml of isotonic buffer containing 150 μl of 2 mg/ml soybean trypsin inhibitor and constituted the mitochondrial fractions. […] (St. Louis, Mo., USA). […] Aliquots (400 μl) of mitochondrial fractions were mixed with 933 μl Triton X-100 solution (0.3%, v/v, in isotonic buffer) and sonicated for 2 min on ice. The mixtures were then subjected to measurements of mitochondrial glutathione reductase (GRD), Se-glutathione peroxidase (GPX) and glutathione S-transferases (GST) activities by spectrophotometric methods, as described in Chiu et al. (2002).

[7] = 0 h post-dosing (unpretreated control)
[8] = MENADIONE 12.5 μM for 4 h, drug 6.25 μM for 16 h
[9] = NON-MENADIONE, 6.25 μM for 16 h
[10] = X/XO challenge, 16 h post-dosing

## COc1cc2c(c(OC)c1OC)-c1c(cc3c(c1OC)OCO3)CC(C)C(C)C2 (racemic) [(±) Sch B, (±) Schisandrin B]
H9c2 cells [1]; [7]
  LDH Leakage: 33.9 ± 0.93 U/L
H9c2 cells [1]; 4 h post-dosing
  LDH Leakage: 28.7 ± 1.35 U/L
H9c2 cells [1]; 8 h post-dosing
  LDH Leakage: 22.8 ± 0.45 U/L
H9c2 cells [1]; 16 h post-dosing
  LDH Leakage: 15.8 ± 0.91 U/L
  LDH Leakage, percent protection vs unpretreated control (0 h): (65%)
H9c2 cells [1]; 24 h post-dosing
  LDH Leakage: 20.1 ± 0.76 U/L
H9c2 cells [1]; 48 h post-dosing
  LDH Leakage: 29.2 ± 0.57 U/L
H9c2 cells [2]; [8]
  GSH Level: 28.9 ± 0.66 nmol/mg protein
  GSH Level, percent increase vs menadione control: (56%)
H9c2 cells [2]; [9]
  GSH Level: 46.5 ± 2.58 nmol/mg protein
  GSH Level, percent increase vs non-menadione control: (34%)
H9c2 cells [3]; [8]
  LDH: 23.6 ± 0.56 U/ml
  LDH, percent protection vs menadione control: (43%)
H9c2 cells [3]; [9]
  LDH: 14.6 ± 0.67 U/ml
Hsp70; [7]
  Hsp 70 Level: 434 ± 15.5 AU
Hsp70; 8 h post-dosing
  Hsp 70 Level: 389 ± 24.7 AU
Hsp70; 16 h post-dosing
  Hsp 70 Level: 652 ± 23.9 AU
Hsp70; 24 h post-dosing
  Hsp 70 Level: 639 ± 23.4 AU
  Hsp 70 Level, percent increase vs unpretreated control (0 h): (47%)
Hsp70; 48 h post-dosing
  Hsp 70 Level: 419 ± 15.4 AU
H9c2 cells [4]; NON-X/XO, 0 h post-dosing (unpretreated control)
  GSH Level: 38.3 ± 1.16 nmol/mg protein
H9c2 cells [4]; NON-X/XO, 4 h post-dosing
  GSH Level: 44.1 ± 3.60 nmol/mg protein
H9c2 cells [4]; NON-X/XO, 8 h post-dosing
  GSH Level: 46.2 ± 1.90 nmol/mg protein
H9c2 cells [4]; NON-X/XO, 16 h post-dosing
  GSH Level: 85.8 ± 2.57 nmol/mg protein
  GSH Level, percent increase vs unpretreated control (0 h): (124%)
H9c2 cells [4]; NON-X/XO, 24 h post-dosing
  GSH Level: 76.6 ± 0.88 nmol/mg protein
H9c2 cells [4]; NON-X/XO, 48 h post-dosing
  GSH Level: 58.8 ± 6.54 nmol/mg protein
H9c2 cells [4]; X/XO challenge, 0 h post-dosing (unpretreated control)
  GSH Level: 14.5 ± 1.06 nmol/mg protein
H9c2 cells [4]; X/XO challenge, 4 h post-dosing
  GSH Level: 15.8 ± 0.49 nmol/mg protein
H9c2 cells [4]; X/XO challenge, 8 h post-dosing
  GSH Level: 16.7 ± 1.32 nmol/mg protein
H9c2 cells [4]; [10]
  GSH Level: 22.3 ± 0.15 nmol/mg protein
  GSH Level, percent increase vs unpretreated control (0 h): (54%)
H9c2 cells [4]; X/XO challenge, 24 h post-dosing
  GSH Level: 18.9 ± 0.50 nmol/mg protein
H9c2 cells [4]; X/XO challenge, 48 h post-dosing
  GSH Level: 14.3 ± 1.04 nmol/mg protein
Hsp25; [7]
  Hsp 25 Level: 1413 ± 76 AU
Hsp25; 8 h post-dosing
  Hsp 25 Level: 1512 ± 39 AU
Hsp25; 16 h post-dosing
  Hsp 25 Level: 1611 ± 93 AU
Hsp25; 24 h post-dosing
  Hsp 25 Level: 1728 ± 101 AU
  Hsp 25 Level, percent increase vs unpretreated control (0 h): (24%)
Hsp25; 48 h post-dosing
  Hsp 25 Level: 1332 ± 77 AU

## O=C(O)CCCCC1CCSS1 (stereo not drawn) [α-LA, α-lipoic acid]
[5]; BRAIN
  ATP generation: 72 ± 4 percent control
[5]; HEART
  ATP generation: 68 ± 9 percent control
[5]; LIVER
  ATP generation: 77 ± 5 percent control
[5]; SKELETAL MUSCLE
  ATP generation: 101 ± 1 percent control
[5]
  effect on mitochondrial ATP generation capacity in various tissues: decreased
[6]; BRAIN
  GPX: 126 ± 9 percent control
  GRD: 131 ± 5 percent control
  GSH: 93 ± 2 percent control
  GST: 103 ± 3 percent control
  α-Toc level: 110 ± 6 percent control
[6]; HEART
  GPX: 105 ± 9 percent control
  GRD: 144 ± 11 percent control
  GSH: 103 ± 4 percent control
  GST: 119 ± 6 percent control
  α-Toc level: 111 ± 4 percent control
[6]; LIVER
  GPX: 159 ± 10 percent control
  GRD: 143 ± 8 percent control
  GSH: 117 ± 2 percent control
  GST: 112 ± 3 percent control
  α-Toc level: 124 ± 13 percent control
[6]; SKELETAL MUSCLE
  GPX: 117 ± 5 percent control
  GRD: 123 ± 12 percent control
  GSH: 154 ± 12 percent control
  GST: 171 ± 19 percent control
  α-Toc level: 147 ± 14 percent control

## Cc1c(C)c2c(c(C)c1O)CC[C@@](C)(CCC[C@H](C)CCC[C@H](C)CCCC(C)C)O2 [α-Toc, α-tocopherol]
[5]; BRAIN
  ATP generation: 62 ± 8 percent control
[5]; HEART
  ATP generation: 95 ± 12 percent control
[5]; LIVER
  ATP generation: 83 ± 8 percent control
[5]; SKELETAL MUSCLE
  ATP generation: 80 ± 8 percent control
[5]
  effect on mitochondrial ATP generation capacity in various tissues: decreased
[6]; BRAIN
  GPX: 121 ± 12 percent control
  GRD: 153 ± 10 percent control
  GSH: 119 ± 6 percent control
  GST: 121 ± 5 percent control
  α-Toc level: 139 ± 9 percent control
[6]; HEART
  GPX: 130 ± 10 percent control
  GRD: 243 ± 20 percent control
  GSH: 152 ± 9 percent control
  GST: 159 ± 7 percent control
  α-Toc level: 151 ± 5 percent control
[6]; LIVER
  GPX: 169 ± 14 percent control
  GRD: 161 ± 5 percent control
  GSH: 133 ± 11 percent control
  GST: 128 ± 3 percent control
  α-Toc level: 214 ± 31 percent control
[6]; SKELETAL MUSCLE
  GPX: 136 ± 7 percent control
  GRD: 149 ± 8 percent control
  GSH: 153 ± 6 percent control
  GST: 176 ± 13 percent control
  α-Toc level: 189 ± 11 percent control
